These results are taken from US7507727B2, “Substituted quinobenzoxazine analogs and methods of using thereof” (Cylene Pharmaceuticals, Inc., priority 2003, dated 2009).

In one assay the target is c-Myc template DNA (c-myc quadruplex). Nature of the assay: Quadruplex binding / stop assay (Taq polymerase arrest, capillary electrophoresis). The conditions noted are these: read-out: S DATA; Table 1D, stop assay data.
Source text: A high throughput polymerase arrest assay has been developed. The assay comprises contacting a template nucleic acid, often DNA, with a primer, which also is often DNA; contacting the primer/template complex with a compound described herein (also referred to as a “test compound”); contacting the primer/template complex with a polymerase; and separating reaction products. The assay often includes the step of denaturing the primer/template complex mixture and then renaturing the complex, which often is carried out before a test molecule is added to the system. Multiple assays often are carried out using varying concentrations of a test compound, such that an IC50 value can be obtained, for example. The reaction products often include extended primers of different lengths.
Thus, the reaction mixture often includes at least two reaction products when a test compound interacts with a quadruplex structure in the template, one having a completely extended primer and one having an incompletely extended primer, and these two reaction products are separated. The products may be separated using any convenient separation method, such as mass spectrometry and in one embodiment, capillary electrophoresis.
In an embodiment, a primer oligonucleotide covalently linked to a fluorescent label is contacted with template DNA. The resulting complex is contacted with a test molecule and then contacted with a polymerase capable of extending the primer. The reaction products then are separated and detected by capillary electrophoresis. A longer primer sequence was used for practicing this embodiment as compared to embodiments where the primer includes no covalently-linked fluorophore or where capillary electrophoresis is not utilized for separation. Deoxynucleotides are added at any stage of the assay before the separation, often when the primer is contacted with the template DNA. The template DNA/primer complex often is denatured (e.g., by increasing the temperature of the system) and then renatured (e.g., by cooling the system) before a test compound is added).
The mixture was denatured at 95° C. for 5 minutes and, after cooling down to room temperature, was incubated at 37° C. for 15 minutes.
After cooling down to room temperature, 1 mM KCl and the test compound (various concentrations) were added and the mixture incubated for 15 minutes at room temperature. The primer extension was performed by adding 10 mM KCl and Taq DNA Polymerase (2.5 U/reaction, Promega) and incubating at 70° C. for 30 minutes. The reaction was stopped by adding 1 μl of the reaction mixture to 10 μl Hi-Di Formamide mixed and 0.25 μl LIZ120 size standard. Hi-Di Formamide and LIZ120 size standard were purchased from Applied Biosystems.
The partially extended quadruplex arrest product was between 61 or 62 bases long and the full-length extended product was 99 bases long. The products were separated and analyzed using capillary electrophoresis. Capillary electrophoresis was performed using an ABI PRISM 3100-Avant Genetic Analyzer.
Stop Assays. […] A fluorescently labeled primer DNA is then annealed to the 3′ end of the template DNA. A DNA polymerase such as Taq polymerase is then introduced to synthesize a complementary strand of DNA by extending from the fluorescently labeled primer. When the progress of the Taq polymerase is unhindered, it synthesizes a full-length copy of the template.
These products are visualized by capillary electrophoresis.
Regarding `CN(C)CCCCNc1ccc2c(=O)c(C(=O)NCCN3CCCC3)cn3c2c1Oc1cc2ccccc2cc1-3` [compound 1540], the IC50 was 1 µM. Same read-out and setting: the figure for `CN1CCN(CCCNc2c(F)cc3c(=O)c(C(=O)N4CCC(NC(=O)OC(C)(C)C)C4)cn4c3c2Oc2ccccc2-4)CC1` (stereo not drawn) [compound 1574] is greater than 15 µM; for `CC(C)OCCNc1c(F)cc2c(=O)c(C(=O)NCCC3CCCN3C)cn3c2c1Oc1cc2ccccc2cc1-3` (stereo not drawn) [compound 1746] it is greater than 15 µM; for `O=C(c1cn2c3c(c(N4CC5CCCNC5C4)c(F)cc3c1=O)Oc1cc3ccccc3cc1-2)N1CCC(N2CCCC2)CC1` (stereo not drawn) [compound 1643] it is greater than 15 µM. Regarding `N#Cc1ccc2c(c1)-n1cc(C(=O)NCCN3CCCC3)c(=O)c3cc(F)c(N4CCC(c5cnccn5)C4)c(c31)O2` (stereo not drawn) [compound 1778], the IC50 was 2.9 µM. In the case of `O=C(NCCN1CCOCC1)c1cn2c3c(c(NCCN4CCOCC4)c(F)cc3c1=O)Oc1ccccc1-2` [compound 1605], the IC50 was greater than 15 µM. Regarding `CN(C)CCCCNc1ccc2c(=O)c(C(=O)NC3CC(C)(C)NC(C)(C)C3)cn3c2c1Oc1cc2ccccc2cc1-3` [compound 1543], the IC50 was 1.75 µM. On to `CN1CCCC1CCNC(=O)c1cn2c3c(c(N4CCC(c5cnccn5)C4)c(F)cc3c1=O)Oc1ccc(Cl)cc1-2` (stereo not drawn) [compound 1764], for which the IC50 worked out at 4.8 µM.

Consider `CN1CCCC1CCNC(=O)c1cn2c3c(c(NCCN4CCCC4)ccc3c1=O)Oc1cc3ccccc3cc1-2` (stereo not drawn) [compound 1517], for which the IC50 was found to be 0.75 µM. In the case of `CN(C)CCCCNC(=O)c1cn2c3c(c(NCCN4CCOCC4)c(F)cc3c1=O)Oc1ccccc1-2` [compound 1610], the IC50 is greater than 15 µM. As for `CCN(CC)CCCC(C)Nc1c(F)cc2c(=O)c(C(=O)NCCC3CCCN3C)cn3c2c1Oc1cc2ccccc2cc1-3` (stereo not drawn) [compound 1499], the IC50 is 0.75 µM.

Turning to `CN1CCCC1CCN(CC[C@@H]1CCCN1C)C(=O)c1cn2c3c(c(N4CCC(c5cnccn5)C4)c(F)cc3c1=O)Oc1cc3ccccc3cc1-2` (stereo partly drawn) [compound 1754], the IC50 amounted to 5 µM. Consider `CN1CCCC1CCNC(=O)c1cn2c3c(c(NCC4CCNCC4)c(F)cc3c1=O)Oc1cc3ccccc3cc1-2` (stereo not drawn) [compound 1481], for which the IC50 came to 1.75 µM.

The same assay, now with this note: read-out: Stop Data c-Myc μM; concentration at which 50% of the DNA was arrested (arrested:full-length 1:1).
Consider `Nc1c(F)c(NCCCN2CCOCC2)c2c3c1c(=O)c(C(=O)NCCN1CCOCC1)cn3-c1cc3ccccc3cc1O2` [compound 221], for which the IC50 came to 1.75 µM. Take `N[C@@H]1CCN(c2c(F)cc3c(=O)c(C(=O)NCCN4CCCC4)cn4c3c2Oc2c-4ccc3ccccc23)C1` [compound 401]: the IC50 is 0.75 µM.

Consider `CN1CCCC1CCNc1c(F)cc2c(=O)c(C(=O)N3CC[C@H](N)C3)cn3c4cc5c(cc4oc1c23)c(=O)c1ccccc15` (stereo partly drawn) [compound 215], for which the IC50 was 1.75 µM. As to `CN1CCCC1CCNC(=O)c1cn2c3c(c(N4CC[C@@H](NC(=O)CCNCCCN5CCOCC5)C4)c(F)cc3c1=O)Oc1cc3c(cc1-2)oc1ccccc13` (stereo partly drawn) [compound 416], the IC50 is 0.75 µM.

With `CN1CCCC1CCNC(=O)c1cn2c3c(c(N4CCC(NC(=O)OC(C)(C)C)CC4)c(F)cc3c1=O)Oc1cc3ccccc3cc1-2` (stereo not drawn) [compound 262], the IC50 stood at 1.75 µM. As for `CN(C)CCNC(=O)c1cn2c3cc4c(=O)c5ccccc5c(=O)c4cc3oc3c(N4CCN(C)CC4)c(F)cc(c1=O)c32` [compound 353], the IC50 worked out at 0.9 µM.

As for `CN(C)CCCCNC(=O)c1cn2c3c(c(NCCCCN(C)C)c(F)cc3c1=O)Oc1cc3ccccc3cc1-2` [compound 126], the IC50 was found to be 1.75 µM. On to `Nc1c(F)c(N2CCC(N)C2)c2c3c1c(=O)c(C(=O)NCCN1CCOCC1)cn3-c1cc3ccccc3cc1O2` (stereo not drawn) [compound 238], for which the IC50 turned out to be 1.75 µM. The same measure, in the same setting: under `CN(C)CCCCNc1ccc2c(=O)c(C(=O)NCCN3CCCC3)cn3c2c1Oc1cc2ccccc2cc1-3` [compound 326] stands 1 µM. As to `CN1CCCC1CCNC(=O)c1cn2c3c(c(NCCCN4CCOCC4)c(F)cc3c1=O)Oc1c-2ccc2ccccc12` (stereo not drawn) [compound 128], the IC50 came to 1.75 µM. `CN1CCN(CCCNc2c(F)cc3c(=O)c(C(=O)NCCC4CCCN4C)cn4c3c2Oc2cc3ccccc3cc2-4)CC1` (stereo not drawn) [compound 394]: the IC50 stood at 0.75 µM.
